# From patent publication US9855270B2, “Methods and compositions for modulating estrogen receptor mutants” (priority 2014, dated 2018)
# Like-named read-outs stand apart in the source and are kept apart here.
# Experiments:
# Format in all cases: cell-based
# Design in all cases: Percent inhibition compared to vehicle: concentration or dose not given beside the values
# [1] = test system: MCF-7 cells stably expressing UbC HA-ER-α L536R; assay: cells; details: for EC50: Homo sapiens, MCF7, UbC HA-ER-α L536R, read-out: Potency (EC50; nM); for Percent inhibition compared to vehicle / Efficacy (Emax): UbC HA-ER-α L536R; for Percent inhibition compared to vehicle: 5-Day Incubation; for Efficacy (Emax): Day 5 relative to Day 0
# From the text: (§1) MCF-7 Mutant ER-α Stable Cell Line Generation: MCF-7 cells stably expressing wild-type or ER-α mutants were generated by subcloning ESR1 wild-type and mutant cDNAs containing an amino terminal hemagglutinin tag into pCDH-EF1-MCS-(PGK-Puro) (referred to as EF1 HA-ER-α) and pCDH-UbC-MCS-EF1-Hygro (referred to as UbC HA-ER-α) (System Biosciences). The resulting plasmids, in addition to an empty vector negative control, were subsequently cotransfected into HEK293T cells with the pPACKH1 packaging plasmid mix (System Biosciences) according to the manufacturer's protocol. Four days post transfection lentiviral particles were purified from the cell medium, tiered and stored at −80° C. MCF-7 cells were transduced with the purified viral particles and stable cell lines were selected by growth in RPMI containing 10% FBS plus 1 μG/mL puromycin or 200 μG/mL hygromycin for pCDH-EF1-MCS-(PGK-Puro) and pCDH-UbC-MCS-EF1-Hygro, respectively.
# (§2) MCF-7 Stable Cell Line Viability: MCF-7 cells were enumerated with a hemacytometer adjusted to a concentration of 40,000 cells per mL in Phenol Free RPMI containing 10% CSS with NEAA and Sodium Pyruvate. 16 microliters of the cell suspension was added to each well of a 384 well tissue culture treated white clear bottom polystyrene plate (Corning) using a Matrix 16 channel electronic pipette. The cells were incubated overnight to allow the cells to adhere. The following day, 16 microliters of Phenol Free RPMI containing 10% CSS with NEAA and Sodium Pyruvate was added to the wells of one plate, followed by 16 μL of CellTiter-Glo (Promega, Madison Wis.) luminescent cell viability reagent using a Matrix 16 channel electronic pipette. […] The “average” of the relative luminescence units (RLUs) of the wells are considered to be the baseline value at time=zero. In addition, a 10 point, 1:5 serial dilution in DMSO (Sigma-Aldrich) was performed using Matrix 12 channel electronic pipette, including DMSO only as […]. 4 μL of each dilution was then added to 196 μL of RPMI containing 10% CSS with NEAA and Sodium Pyruvate. 16 μL of medium containing compound was added to the cells at a final concentration ranging from 10 μM to 5 pM. Compound dilution in media and subsequent addition to cells were carried out using Matrix 12 channel electronic pipettes. After 5 day compound exposure, 16 μL of CellTiter-Glo (Promega, Madison Wis.) luminescent cell viability reagent was added to the cells using a Matrix 16 channel electronic pipette. CellTiter-Glo added to 32 μL of medium without cells was used to obtain a background value. […] The relative luminescence units (RLUs) of each well were measured, and relative proliferation (fold) of each sample was determined as follows: (RLU sample−RLU background)/(RLU at T=0)=relative proliferation
# (§3) The UbC promoter is reported by the manufacturer (System Biosciences) to express low to moderate RNA levels while the EF1 promoter expresses high levels (System Biosciences).
# [2] = test system: MCF-7 cells stably expressing EF1 HA-ER-α Y537N; assay: cells; details: for Percent inhibition compared to vehicle: 5-Day Incubation; for EC50: Homo sapiens, MCF7, EF1 HA-ER-α Y537N, read-out: Potency (EC50; nM)
# From the text: as §1, §2, §3
# [3] = test system: MCF-7 cells stably expressing EF1 HA-ER-α E380Q; assay: cells; details: for Percent inhibition compared to vehicle / Efficacy (Emax): EF1 HA-ER-α E380Q; for Percent inhibition compared to vehicle: 5-Day Incubation; for Efficacy (Emax): Day 5 relative to Day 0; for EC50: Homo sapiens, MCF7, EF1 HA-ER-α E380Q, read-out: Potency (EC50; nM)
# From the text: as §1, §2, §3
# [4] = test system: MCF-7 cells stably expressing UbC HA-ER-α E380Q; assay: cells; details: for EC50: Homo sapiens, MCF7, UbC HA-ER-α E380Q, read-out: Potency (EC50; nM); for Percent inhibition compared to vehicle / Efficacy (Emax): UbC HA-ER-α E380Q; for Percent inhibition compared to vehicle: 5-Day Incubation; for Efficacy (Emax): Day 5 relative to Day 0
# From the text: as §1, §2, §3
# [5] = test system: MCF-7 cells transduced with an empty EF1 lentiviral vector (negative control); assay: MCF-7 Stable Cell Line Viability (EF1 HA-ER-α series); details: for EC50: Homo sapiens, MCF7, Receptor None (empty EF1 lentiviral vector), read-out: Potency (EC50; nM); for Percent inhibition compared to vehicle / Efficacy (Emax): Receptor None (empty EF1 lentiviral vector); for Percent inhibition compared to vehicle: 5-Day Incubation; for Efficacy (Emax): Day 5 relative to Day 0
# From the text: as §1, §2, §3
# [6] = test system: MCF-7 cells stably expressing EF1 HA-ER-α wild-type; assay: as above; details: for Percent inhibition compared to vehicle / Efficacy (Emax): EF1 HA-ER-α Wild-type; for Percent inhibition compared to vehicle: 5-Day Incubation; for Efficacy (Emax): Day 5 relative to Day 0; for EC50: Homo sapiens, MCF7, EF1 HA-ER-α Wild-type, read-out: Potency (EC50; nM)
# From the text: as §1, §2, §3
# [7] = test system: MCF-7 cells (negative control); assay: MCF-7 Stable Cell Line Viability (UbC HA-ER-α series); details: for EC50: Homo sapiens, MCF7, Receptor None (MCF-7 negative control); for Percent inhibition compared to vehicle / Efficacy (Emax): Receptor None (MCF-7 negative control)
# From the text: as §1, §2, §3
# [8] = test system: MCF-7 cells stably expressing UbC HA-ER-α wild-type; assay: as above; details: for EC50: Homo sapiens, MCF7, UbC HA-ER-α Wild-type, read-out: Potency (EC50; nM); for Percent inhibition compared to vehicle / Efficacy (Emax): UbC HA-ER-α Wild-type; for Percent inhibition compared to vehicle: 5-Day Incubation; for Efficacy (Emax): Day 5 relative to Day 0
# From the text: as §1, §2, §3
structure (smiles),measurement,setting,value
"CC/C(=C(/c1ccc(/C=C/C(=O)O)cc1)c1ccc2[nH]ncc2c1)c1ccc(F)cc1Cl [Compound 1-3, (E)-3-(4-((E)-2-(2-chloro-4-fluorophenyl)-1-(1H-indazol-5-yl)but-1-en-1-yl)phenyl)acrylic acid]",EC50,"[1]; Agonist Mode, −E2",0.926 ± 0.428 nM
same,EC50,"[1]; Antagonist Mode, +E2",6.96 ± 3.76 nM
same,Percent inhibition compared to vehicle,"[1]; Agonist Mode, −E2",55%
same,Efficacy (Emax),"[1]; Agonist Mode, −E2",1.73 ± 0.22
same,Percent inhibition compared to vehicle,"[1]; Antagonist Mode, +E2",71%
same,Efficacy (Emax),"[1]; Antagonist Mode, +E2",1.71 ± 0.10
same,Percent inhibition compared to vehicle,"[2]; EF1 HA-ER-α Y537N, Agonist Mode, −E2",48%
same,Efficacy (Emax),"[2]; EF1 HA-ER-α Y537N, Agonist Mode, −E2, Day 5 relative to Day 0",3.11 ± 0.28
same,Percent inhibition compared to vehicle,"[2]; EF1 HA-ER-α Y537N, Antagonist Mode, +E2",44%
same,EC50,"[2]; Agonist Mode, −E2",97.3 ± 46.9 nM
same,EC50,"[2]; Antagonist Mode, +E2",125 ± 35.5 nM
same,Percent inhibition compared to vehicle,"[3]; Agonist Mode, −E2",49%
same,Efficacy (Emax),"[3]; Agonist Mode, −E2",3.35 ± 0.07
same,Percent inhibition compared to vehicle,"[3]; Antagonist Mode, +E2",52%
same,Efficacy (Emax),"[3]; Antagonist Mode, +E2",3.00 ± 0.18
same,EC50,"[3]; Agonist Mode, −E2",18.6 ± 7.11 nM
same,EC50,"[3]; Antagonist Mode, +E2",76.2 ± 21.5 nM
same,EC50,"[4]; Agonist Mode, −E2",1.3 ± 0.232 nM
same,EC50,"[4]; Antagonist Mode, +E2",8.38 ± 3.31 nM
same,Percent inhibition compared to vehicle,"[4]; Agonist Mode, −E2",59%
same,Efficacy (Emax),"[4]; Agonist Mode, −E2",1.74 ± 0.24
same,Percent inhibition compared to vehicle,"[4]; Antagonist Mode, +E2",76%
same,Efficacy (Emax),"[4]; Antagonist Mode, +E2",1.72 ± 0.38
same,EC50,"[5]; Agonist Mode, −E2",0.828 ± 0.347 nM
same,EC50,"[5]; Antagonist Mode, +E2",9.27 ± 3.93 nM
same,Percent inhibition compared to vehicle,"[5]; Agonist Mode, −E2",54%
same,Efficacy (Emax),"[5]; Agonist Mode, −E2",1.03 ± 0.14
same,Percent inhibition compared to vehicle,"[5]; Antagonist Mode, +E2",75%
same,Efficacy (Emax),"[5]; Antagonist Mode, +E2",1.01 ± 0.12
same,Percent inhibition compared to vehicle,"[6]; Agonist Mode, −E2",48%
same,Efficacy (Emax),"[6]; Agonist Mode, −E2",2.97 ± 0.50
same,Percent inhibition compared to vehicle,"[6]; Antagonist Mode, +E2",59%
same,Efficacy (Emax),"[6]; Antagonist Mode, +E2",2.78 ± 0.26
same,EC50,"[6]; Agonist Mode, −E2",2.84 ± 1.36 nM
same,EC50,"[6]; Antagonist Mode, +E2",28 ± 10.3 nM
same,EC50,"[7]; Agonist Mode, −E2, read-out: Potency (EC50; nM)",0.603 ± 0.74 nM
same,EC50,"[7]; Antagonist Mode, +E2, read-out: Potency (EC50; nM)",4.84 ± 4.42 nM
same,Percent inhibition compared to vehicle,"[7]; Agonist Mode, −E2, 5-Day Incubation",30%
same,Efficacy (Emax),"[7]; Agonist Mode, −E2, Day 5 relative to Day 0",1.23 ± 0.88
same,Percent inhibition compared to vehicle,"[7]; Antagonist Mode, +E2, 5-Day Incubation",70%
same,Efficacy (Emax),"[7]; Antagonist Mode, +E2, Day 5 relative to Day 0",0.97 ± 0.01
same,EC50,"[8]; Agonist Mode, −E2",0.58 ± 0.386 nM
same,EC50,"[8]; Antagonist Mode, +E2",5.5 ± 6.28 nM
same,Percent inhibition compared to vehicle,"[8]; Agonist Mode, −E2",37%
same,Efficacy (Emax),"[8]; Agonist Mode, −E2",1.17 ± 0.17
same,Percent inhibition compared to vehicle,"[8]; Antagonist Mode, +E2",76%
same,Efficacy (Emax),"[8]; Antagonist Mode, +E2",1.16 ± 0.03
